Measured values taken from patent publication US20130324502A1, “NOVEL FORMULATIONS FOR DERMAL, TRANSDERMAL AND MUCOSAL USE 1” (MOBERG PHARMA AB, priority 2011, published 2013).

Test: Franz cell penetration study through pig skin stratum corneum/epidermis membrane
Format: in vitro ADME
Details: for Cumulative penetration of spironolactone through stratum corneum/epidermis: formulation of Table 6a, receptor phosphate buffer pH 7.4
Method: The functionality of the formulation was tested by evaporating the anti-solvent ethyl acetate. […] This formulation was used for penetration testing. When applied to the skin, spironolactone is intended to penetrate through the statum corneum into epidermis/dermis and not through the skin.
In this set-up, dermis was removed from full thickness pig skin and the remaining membrane consisting of stratum corneum and epidermis was mounted in the cell. The receptor fluid was phosphate buffer at pH 7.4 and 32° C. An amount of the experimental formulation corresponding to 50 mg of product and 1.5 mg of active substance after evaporation was applied. […] The experiment was performed at 34° C. and analysis of spironolactone was performed by HPLC.

[1] = after 6 hours, 1.5 mg of active substance applied

amount of spironolactone passed the skin membrane [1]: 0.5 mg
spironolactone passed the skin membrane, % of the dose [1]: 33%
Cumulative penetration of spironolactone through stratum corneum/epidermis (time 0 h): 0 μg/cm^2
Cumulative penetration of spironolactone through stratum corneum/epidermis (time 2 h): 281 μg/cm^2
Cumulative penetration of spironolactone through stratum corneum/epidermis (time 4 h): 381 μg/cm^2
Cumulative penetration of spironolactone through stratum corneum/epidermis (time 6 h): 440 μg/cm^2
Cumulative penetration of spironolactone through stratum corneum/epidermis (time 24 h): 466 μg/cm^2
SMILES: CC(=O)S[C@@H]1CC2=CC(=O)CC[C@]2(C)[C@H]2CC[C@@]3(C)[C@@H](CC[C@@]34CCC(=O)O4)[C@H]12 [Spironolactone]
